# In the supplement of paper PMC13380429:
# What was measured:
# Settings in all cases: 72 h
# [1] = test system: Calu-3; assay: drug sensitivity score (DSS) for viability; higher = more toxic; extreme values may be limits of the assay
# [2] = test system: HepG2; assay: as above
# [3] = test system: U2OS; assay: as above
# [4] = test system: Vero E6; assay: as above
# [5] = test system: Caco-2; assay: as above
# [6] = test system: Calu-3; assay: relative viability EC50 (midpoint between 100% and the lowest measured viability); higher = less toxic
# [7] = test system: HepG2; assay: as above
# [8] = test system: U2OS; assay: as above
# [9] = test system: Vero E6; assay: as above
# [10] = test system: Caco-2; assay: as above
# [11] = test system: Calu-3; assay: cell viability relative to DMSO; higher = less toxic
# [12] = test system: HepG2; assay: as above
# [13] = test system: U2OS; assay: as above
# [14] = test system: Vero E6; assay: as above
# [15] = test system: Caco-2; assay: as above
Structure (SMILES),drug sensitivity score [1],drug sensitivity score [2],drug sensitivity score [3],drug sensitivity score [4],drug sensitivity score [5],relative viability EC50 [6] [µM],relative viability EC50 [7] [µM],relative viability EC50 [8] [µM],relative viability EC50 [9] [µM],relative viability EC50 [10] [µM],cell viability ([11]; 1 nM) [%],cell viability ([11]; 10 nM) [%],cell viability ([11]; 100 nM) [%],cell viability ([11]; 1000 nM) [%],cell viability ([11]; 10000 nM) [%],cell viability ([12]; 1 nM) [%],cell viability ([12]; 10 nM) [%],cell viability ([12]; 100 nM) [%],cell viability ([12]; 1000 nM) [%],cell viability ([12]; 10000 nM) [%],cell viability ([13]; 1 nM) [%],cell viability ([13]; 10 nM) [%],cell viability ([13]; 100 nM) [%],cell viability ([13]; 1000 nM) [%],cell viability ([13]; 10000 nM) [%],cell viability ([14]; 1 nM) [%],cell viability ([14]; 10 nM) [%],cell viability ([14]; 100 nM) [%],cell viability ([14]; 1000 nM) [%],cell viability ([14]; 10000 nM) [%],cell viability ([15]; 1 nM) [%],cell viability ([15]; 10 nM) [%],cell viability ([15]; 100 nM) [%],cell viability ([15]; 1000 nM) [%],cell viability ([15]; 10000 nM) [%]
C[C@H]1O[C@@H](Oc2c(-c3cc(O)c(O)c(O)c3)oc3cc(O)cc(O)c3c2=O)[C@@H](O)[C@@H](O)[C@@H]1O [myricitrin],0,0,0,0,0,> 10,> 10,> 10,> 10,> 10,92.5,99.2,96.7,101,94.4,104,98.3,109,86.6,99.6,97.9,97.4,94.7,99.1,94.7,99.5,98.5,97.7,96.1,93.8,100,105,100,105,96
C=CCN1CC[C@]23c4c5ccc(O)c4O[C@H]2/C(=N/NC(=O)c2ccccc2)CC[C@@]3(O)[C@H]1C5 [naloxone-benzoylhydrazone],0,0,0,0,0,> 10,> 10,> 10,> 10,> 10,95.4,95.8,89.4,103,112,101,99.5,102,96.4,101,100,101,97.4,103,105,97.9,102,102,97.2,107,91.7,93.8,101,94.7,112
NCC1CC(=O)N(Cc2ccccc2)C1 (stereo not given) [nebracetam],0,0,0,0,0,> 10,> 10,> 10,> 10,> 10,99.7,96.3,93.1,94.4,107,109,108,92.8,96.6,98.5,97.4,104,95.7,100,104,94.5,93.6,97.8,91.4,108,87,91.8,84.4,97.8,99.7
